Reference: patent US6143875A, “Antibody to DNase involved in apoptosis” (priority 1994, dated 2000)
Residue numbers refer to the chain shown, from its start. Values joined by “and” are separate entries in the source; they are usually repeats but may differ in a detail not shown here. Equal values may be shown once.

Experiments:
DNase α = experiment: DNase (endonuclease) activity assay, HeLa S3 nuclei as substrate (Assay 1); type: biochemical, rat; details: for effect of divalent cation on DNase α activity: increasing concentrations of MgCl2 or CaCl2
Protocol: (§1) The activity of endonuclease (DNase) can be assayed by observing fragmentation of chromosomal DNA in the nucleus on 2% agarose gel electrophoresis using, as a substrate, the nucleus of HeLa S3 cell (human cervical carcinoma epithelial cell) which is completely free of endogenous endonuclease [Biochem. Biophys. Res. Commun. 194, (1993), pp, 30-31].
(§2) To be specific, a reaction mixture (30 μl) of HeLa S3 cells (1.67×10^7 /ml) and DNase fraction is incubated at 37° C. for 60 minutes and the reaction is stopped by cooling same on ice. Then, the reaction mixture after reaction is centrifuged at 20,000× g for 20 seconds, and the precipitated nuclei are dissolved in a lysis buffer [50 mM Tris-HCl (pH 7.8), 10 mM EDTA, 0.5% w/v N-lauronyl sarcosylate Na]. The obtained DNA is thoroughly treated with 0.5 mg/ml RNase A for 20 minutes and with 0.5 mg/ml proteinase K for 30 minutes, after which they are subjected to 2% agarose gel electrophoresis. […] The ratio of fragmentation (percent fragmentation) is calculated from the density of DNA fragments with a molecular weight of less than 5 kb.
(§3) As a suitable reaction solution for the assay of the activity of DNases α and β, 50 mM MES-NaOH (-pH 5.6) buffer containing 3 mM MgCl2, 1 mM 2-mercaptoethanol and 0.1 mM PMSF is used. As a suitable reaction solution for the assay of the activity of DNase γ, 50 mM MOPS-NaOH (pH 7.2) buffer containing 3 mM CaCl2, 3 mM MgCl2, 1 mM 2-mercaptoethanol and 0.1 mM PMSF is used.
(§4) Effects of divalent cations on the activity of DNase α, […] were examined. To be specific, the effect of Mg^2+ was examined by assaying the activity of purified DNases α, β and γ in the presence of 3 mM CaCl2 with increasing concentrations of MgCl2. The effect of Ca^2+ was examined by assaying the activity of DNases α, β and γ purified in the same manner, with increasing concentrations of CaCl2 in the presence of 3 mM MgCl2. The effect of Zn^2+ was examined in 50 mM […] (pH 5.6) buffer containing 3 mM MgCl2, 1 mM 2-mercaptoethanol and 0.1 mM PMSF with increasing concentrations of ZnCl2 with regard to DNases α and β, and it was examined in 50 mM MOPS-NaOH (pH 7.2) buffer containing 3 mM CaCl2, 3 mM MgCl2, 1 mM 2-mercaptoethanol and 0.1 mM PMSF, with increasing concentrations of ZnCl2 with regard to DNase γ. The results are shown in FIG. 8, FIG. 8B, and FIG. 8C. As a result, DNase γ required both Ca^2+ and Mg^2+ for full activity, wherein the optimal concentration of the both was 1-3 mM (FIG. 8A and FIG. 8B). DNase γ was sensitive to Zn^2+, and its activity was inhibited by 50% by Zn^2+ with a low concentration of 40 μM (FIG. 8c).
(§5) The activity of DNases α and β was calculated relative to the endonuclease activity which was assayed using HeLa S3 cell nuclear chromatin DNA as a substrate and 50 mM MES-NaOH (pH 5.6) buffer containing 3 mM MgCl2, 1 mM 2-mercaptoethanol and 0.1 mM PMSF as a reaction solution, and taken as 100%; and the activity of DNase γ was calculated relative to the endonuclease activity which was assayed using HeLa S3 cell nuclear chromatin DNA as a substrate and 50 mM MOPS-NaOH (pH 7.2) buffer containing 3 mM CaCl2, 3 mM MgCl2, 1 mM 2-mercaptoethanol and 0.1 mM PMSF as a reaction solution, and taken as 100%. In the Table, "-" means deletion of said components from the above-mentioned optimal reaction mixture and "+" means addition of said components to the above-mentioned optimal reaction mixture.

DNase β = experiment: as above; type: biochemical, rat; details: for effect of divalent cation on DNase β activity: increasing concentrations of MgCl2 or CaCl2
Protocol: as §1, §2, §3, §4, §5

DNase γ = target: T1, DNase γ (Rattus norvegicus, UniProt O89107); experiment: as above; type: biochemical; details: for optimal concentration for full DNase γ activity: both Ca2+ and Mg2+ required, other cation at 3 mM; for DNase activity (%) γ: optimal mixture =100%
T1 sequence (O89107 26-310): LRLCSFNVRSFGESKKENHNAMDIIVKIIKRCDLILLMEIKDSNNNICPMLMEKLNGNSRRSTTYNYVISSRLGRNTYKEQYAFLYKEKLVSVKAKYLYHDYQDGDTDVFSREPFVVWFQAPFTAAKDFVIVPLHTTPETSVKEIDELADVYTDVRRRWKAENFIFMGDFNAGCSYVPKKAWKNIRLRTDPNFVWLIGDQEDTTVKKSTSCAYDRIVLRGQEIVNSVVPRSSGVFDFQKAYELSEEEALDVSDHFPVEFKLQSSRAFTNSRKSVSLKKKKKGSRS
Protocol: as §1, §2, §3, §4, §5

[1] = system: HeLa S3 cell nuclear chromatin DNA; experiment: Endonuclease activity of purified DNases in HeLa S3 nuclear assay system; type: biochemical, human
Protocol: as §1, §2, §3
The optimal pH for the activity of DNases α, β and γ was determined by assaying HeLa S3 nuclei in various buffers from acidic to basic (Reference Example 3, Assay 1) and calculating from the percentage of DNA fragmentation.
as §5

[2] = system: DNA derived from HeLa S3 cell nuclei; experiment: End labeling method, DNA cleavage mode; type: biochemical, human; details: 3' and 5' end labeling with/without alkaline phosphatase
[3] = +3 mM added to optimal reaction mixture (=100%)
[4] = +Mn2+ 3 mM, -Mg2+/Ca2+, optimal mixture =100%
[5] = +Zn2+ 0.1 mM, optimal mixture =100%
[6] = increasing ZnCl2 in pH 5.6 buffer, 3 mM MgCl2, read-out: Inhibition by Zn2+: IC50
[7] = up to the concentration of 1 mM
[8] = +aurintricarboxylate 30 μM, optimal mixture =100%
[9] = +aurintricarboxylate 100 μM, optimal mixture =100%

## [Ca+2].[Cl-].[Cl-] [Ca^2+]
DNase α; [3]
  DNase activity (%) α: 101%
DNase α
  effect of divalent cation on DNase α activity: not influenced
DNase β; [3]
  DNase activity (%) β: 104%
DNase β
  effect of divalent cation on DNase β activity: not influenced
DNase γ
  optimal concentration for full DNase γ activity: 1 to 3 mM

## [Cl-].[Cl-].[Mg+2] [Mg^2+]
DNase α; [3]
  DNase activity (%) α: 104%
DNase α
  effect of divalent cation on DNase α activity: not influenced
DNase β; [3]
  DNase activity (%) β: 102%
DNase β
  effect of divalent cation on DNase β activity: not influenced
DNase γ
  optimal concentration for full DNase γ activity: 1 to 3 mM

## [Mn+2] [Mn^2+]
DNase α; [4]
  DNase activity (%) α: 104%
DNase β; [4]
  DNase activity (%) β: 103%
DNase γ; +Mn2+ 3 mM, -Mg2+/Ca2+
  DNase activity (%) γ: 45%

## [Cl-].[Cl-].[Zn+2] [Zn^2+]
DNase α; [5]
  DNase activity (%) α: 90%
DNase α; [6]
  IC50: ≥ 1000 µM
DNase α; [7]
  effect of Zn2+ on DNase α activity: not influenced
DNase β; [5]
  DNase activity (%) β: 93%
DNase β; [6]
  IC50: ≥ 1000 µM
DNase β; [7]
  effect of Zn2+ on DNase β activity: not influenced
DNase γ; +Zn2+ 0.1 mM
  DNase activity (%) γ: 21%
DNase γ; increasing ZnCl2 in 50 mM MOPS-NaOH (pH 7.2), 3 mM CaCl2, 3 mM MgCl2, read-out: Inhibition by Zn2+: IC50
  IC50: 40 µM

## O=C(O)C1=CC(=C(c2ccc(O)c(C(=O)O)c2)c2ccc(O)c(C(=O)O)c2)C=CC1=O [aurintricarboxylic acid]
DNase α
  inhibition of DNase α activity: completely inhibited
DNase α; [8]
  DNase activity (%) α: 32%
DNase α; [9]
  DNase activity (%) α: 0%
DNase β; [8]
  DNase activity (%) β: 0%
DNase β; [9]
  DNase activity (%) β: 0%
DNase β; at a concentration of 100 μM
  inhibition of DNase β activity: completely inhibited
DNase γ; +aurintricarboxylate 30 μM
  DNase activity (%) γ: 29%
DNase γ; +aurintricarboxylate 100 μM
  DNase activity (%) γ: 0%
DNase γ; at a concentration of 100 μM
  inhibition of DNase γ activity: completely inhibited

B1: DNase γ: novel endonuclease of rat cell nuclei cleaving linker sites of chromatin DNA; SEQ ID NO: 1, amino acids 26-310 (protein)
chain: T1 sequence (O89107 26-310) with N163I, L218V
[1]
  Divalent cation dependency: Ca^2+ /Mg^2+, Mn^2+ dependent
[1]; -2-mercaptoethanol (deleted from optimal reaction mixture =100%)
  DNase activity (%): 96%
[1]; -Ca2+ (deleted from optimal reaction mixture =100%)
  DNase activity (%): 1%
[1]; -Mg2+ (deleted from optimal reaction mixture =100%)
  DNase activity (%): 16%
[1]; -PMSF (deleted from optimal reaction mixture =100%)
  DNase activity (%): 94%
[2]
  DNA cleavage mode: 3'-OH/5'-P termini and 3'--OH, 5'-P end forming type
